The results in this text go back to patent US20250243245A1 (priority 2022, published 2025).

Values joined by “and” are separate entries in the source; they are usually repeats but may differ in a detail not shown here. Equal values may be shown once. Read-outs that look alike come from different tables or passages of the source. Where a SMILES comes first, the peptide text is derived from it.

Broadly, the IC50 is the midpoint of a concentration-inhibition curve. The MIC is the smallest concentration in the dilution series that meets the test's criterion for growth inhibition.

The nature of one data set: in vitro. The note with it: human, HEK cells (HEK294 [sic]).
For data set [1], the system named is tomato and tobacco leaves. The data set is described as follows: Leaf infiltration toxicity on tomato and tobacco leaves. The note with it: for toxicity to tomato and tobacco: 15-25 μM, even after 96 hours of leaf infiltration; for corrosion of infiltrated tomato and tobacco leaves: 24, 48, 72, and 96 hours of infiltration (FIGS. 8A-H).
For a further data set, the system named is E. coli strain BL21. The note with it: BL21, 24 h.
Another data set relates to CLas. The class given is cell-based, Candidatus Liberibacter asiaticus.
Data set [2] deals with selected genes in the PTI, ETI, and SA/JA/ET signaling. The class given is cell-based, apple (Red Delicious).
The next data set concerns E. amylovora. The class given is cell-based, Erwinia amylovora.

Compound `CC[C@H](C)[C@H](NC(=O)[C@H](CCCNC(=N)N)NC(=O)[C@H](CCCNC(=N)N)NC(=O)[C@H](CCC(N)=O)NC(=O)[C@H](Cc1c[nH]c2ccccc12)NC(=O)[C@H](Cc1ccccc1)NC(=O)CNC(=O)[C@@H]1CCCN1C(=O)[C@H](CO)NC(=O)CNC(=O)[C@H](CCCCN)NC(=O)[C@H](CC(C)C)NC(=O)[C@H](CO)NC(=O)[C@H](CCC(=O)O)NC(=O)[C@H](CC(C)C)NC(=O)[C@@H](NC(=O)[C@H](CCCCN)NC(=O)[C@H](CC(C)C)NC(=O)[C@@H](NC(=O)[C@H](CCCCN)NC(=O)[C@H](CCC(=O)O)NC(=O)[C@@H]1CCCN1C(=O)[C@H](CC(C)C)NC(=O)[C@H](CCCCN)NC(=O)[C@@H](N)CCCCN)[C@@H](C)CC)[C@@H](C)CC)C(=O)N[C@@H](CCCNC(=N)N)C(=O)N[C@@H](CCCNC(=N)N)C(=O)N[C@@H](Cc1c[nH]c2ccccc12)C(=O)N[C@@H](CCCNC(=N)N)C(=O)N[C@@H](CCCNC(=N)N)C(=O)O` [UGK-17] (H-KKLPEKILKILESLKGSPGFWQRRIRRWRR-OH) displayed a cytotoxicity at 72 h, 20 µM in “in vitro” of less than 20%. Besides, the IC50 with E. coli BL21 (BL21, 24 h) was determined as 1360 ± 40 nM. Further, in data set [1], the “toxicity to tomato and tobacco” value was “not toxic”; the “corrosion of infiltrated tomato and tobacco leaves” value (“corrosion” below) is on record as “no corrosion beyond the infiltrated spots”.
With `CC[C@H](C)[C@H](NC(=O)[C@H](CCCCN)NC(=O)[C@H](CC(C)C)NC(=O)[C@@H](NC(=O)[C@H](CCC(=O)O)NC(=O)[C@H](CCCCN)NC(=O)[C@@H]1CCCN1C(=O)[C@H](CC(C)C)NC(=O)[C@H](CCCCN)NC(=O)[C@@H](N)CCCCN)[C@@H](C)CC)C(=O)N[C@@H](CC(C)C)C(=O)NCC(=O)N[C@@H](CO)C(=O)NCC(=O)N[C@@H](Cc1ccc(O)cc1)C(=O)NCC(=O)N[C@@H](CO)C(=O)N[C@@H](CC(C)C)C(=O)N1CCC[C@H]1C(=O)N[C@@H](CCCCN)C(=O)N[C@@H](CCC(=O)O)C(=O)N[C@H](C(=O)N[C@@H](CC(C)C)C(=O)N[C@@H](CCCCN)C(=O)N[C@H](C(=O)N[C@@H](CC(C)C)C(=O)N[C@@H](CCC(=O)O)C(=O)N[C@@H](CC(C)C)C(=O)N[C@@H](CCCCN)C(=O)N[C@@H](CCCCN)C(=O)O)[C@@H](C)CC)[C@@H](C)CC` [Gen-1] (H-KKLPKEILKILGSGYGSLPKEILKILELKK-OH; N-terminus and C-terminus assumed), in the data set on E. coli BL21 (BL21, 24 h), the IC50 was found to be 10220 ± 70 nM. The compound further showed an MIC in the data set with E. coli strain BL21 of 5 to 10 mM.
For `CC[C@H](C)[C@H](NC(=O)[C@H](CCCCN)NC(=O)[C@H](CC(C)C)NC(=O)[C@@H](NC(=O)[C@H](CCCCN)NC(=O)[C@H](CCCCN)NC(=O)[C@@H](NC(=O)[C@H](CC(C)C)NC(=O)[C@H](CCCCN)NC(=O)[C@@H](N)CCCCN)[C@@H](C)CC)[C@@H](C)CC)C(=O)N[C@@H](CC(C)C)C(=O)O` [Peptide 11P-1, reference compound] (H-KKLIKKILKIL-OH; N-terminus and C-terminus assumed), the concentration for half-maximal inhibition (IC50) in the data set on E. coli BL21 (BL21, 24 h) was 12900 ± 620 nM. Also, the MIC against E. coli strain BL21 is 10 to 20 mM.
Take `CC[C@H](C)[C@H](NC(=O)[C@H](CCCNC(=N)N)NC(=O)[C@H](CCCNC(=N)N)NC(=O)[C@H](CCC(N)=O)NC(=O)[C@H](Cc1c[nH]c2ccccc12)NC(=O)[C@H](Cc1ccccc1)NC(=O)CNC(=O)[C@@H]1CCCN1C(=O)[C@H](CO)NC(=O)CNC(=O)[C@H](Cc1ccc(O)cc1)NC(=O)CNC(=O)[C@H](CO)NC(=O)[C@H](CCC(=O)O)NC(=O)[C@H](CC(C)C)NC(=O)[C@@H](NC(=O)[C@H](CCCCN)NC(=O)[C@H](CC(C)C)NC(=O)[C@@H](NC(=O)[C@H](CCCCN)NC(=O)[C@H](CCC(=O)O)NC(=O)[C@@H]1CCCN1C(=O)[C@H](CC(C)C)NC(=O)[C@H](CCCCN)NC(=O)[C@@H](N)CCCCN)[C@@H](C)CC)[C@@H](C)CC)C(=O)N[C@@H](CCCNC(=N)N)C(=O)N[C@@H](CCCNC(=N)N)C(=O)N[C@@H](Cc1c[nH]c2ccccc12)C(=O)N[C@@H](CCCNC(=N)N)C(=O)N[C@@H](CCCNC(=N)N)C(=O)O` [UGK-13] (H-KKLPEKILKILESGYGSPGFWQRRIRRWRR-OH): the cytotoxicity at 72 h, 20 µM in “in vitro” was less than 20%. Further, the IC50 in the data set on ATCC25922 worked out at 1400 ± 300 nM; in the data set on E. coli BL21 (BL21), 1200 ± 100 nM; in the data set on E. coli BL21 (BL21, 24 h), 1240 ± 20 nM. In data set [1], the “toxicity to tomato and tobacco” value is reported as “not toxic”. Besides, the “corrosion” value in data set [1] is on record as “no corrosion beyond the infiltrated spots”.
`CC[C@H](C)[C@H](NC(=O)[C@H](CCC(=O)O)NC(=O)[C@H](CC(C)C)NC(=O)[C@@H](NC(=O)[C@H](CCCCN)NC(=O)[C@H](CCC(=O)O)NC(=O)[C@@H]1CCCN1C(=O)[C@H](CC(C)C)NC(=O)[C@H](CCCCN)NC(=O)[C@@H](N)CCCCN)[C@@H](C)CC)C(=O)N[C@@H](CC(C)C)C(=O)NCC(=O)N[C@@H](CO)C(=O)NCC(=O)N[C@@H](Cc1ccc(O)cc1)C(=O)N[C@@H](CCCCN)C(=O)N[C@@H](CCCCN)C(=O)N[C@@H](CC(C)C)C(=O)N1CCC[C@H]1C(=O)N[C@@H](Cc1ccccc1)C(=O)N[C@@H](Cc1c[nH]c2ccccc12)C(=O)N[C@@H](CCC(N)=O)C(=O)N[C@@H](CCCNC(=N)N)C(=O)N[C@@H](CCCNC(=N)N)C(=O)N[C@H](C(=O)N[C@@H](CCCNC(=N)N)C(=O)N[C@@H](CCCNC(=N)N)C(=O)N[C@@H](Cc1c[nH]c2ccccc12)C(=O)N[C@@H](CCCNC(=N)N)C(=O)N[C@@H](CCCNC(=N)N)C(=O)O)[C@@H](C)CC` [Gen-2] (H-KKLPEKILEILGSGYKKLPFWQRRIRRWRR-OH; N-terminus and C-terminus assumed) yielded a 50% inhibitory concentration (IC50) in the data set with E. coli BL21 (BL21, 24 h) of 2830 ± 140 nM. In the data set on E. coli strain BL21, this compound gave an MIC of 2.5 to 5 mM.
In the data set with E. coli BL21 (BL21, 24 h), `CC[C@H](C)[C@H](NC(=O)[C@H](CCCNC(=N)N)NC(=O)[C@H](CCCNC(=N)N)NC(=O)[C@H](CCC(N)=O)NC(=O)[C@H](Cc1c[nH]c2ccccc12)NC(=O)[C@@H](N)Cc1ccccc1)C(=O)N[C@@H](CCCNC(=N)N)C(=O)N[C@@H](CCCNC(=N)N)C(=O)N[C@@H](Cc1c[nH]c2ccccc12)C(=O)N[C@@H](CCCNC(=N)N)C(=O)N[C@@H](CCCNC(=N)N)C(=O)O` [Peptide 11P-3, reference compound] (H-FWQRRIRRWRR-OH; N-terminus and C-terminus assumed) displayed an IC50 of 49000 ± 2790 nM. In addition, in the data set with E. coli strain BL21, the MIC was more than 20 mM.
For the compound `CC[C@H](C)[C@H](NC(=O)[C@H](CCCCN)NC(=O)[C@H](CC(C)C)NC(=O)[C@@H](NC(=O)[C@H](CCCCN)NC(=O)[C@H](CCCCN)NC(=O)[C@@H]1CCCN1C(=O)[C@H](CC(C)C)NC(=O)[C@H](CCCCN)NC(=O)[C@@H](N)CCCCN)[C@@H](C)CC)C(=O)N[C@@H](CC(C)C)C(=O)NCC(=O)N[C@@H](CO)C(=O)NCC(=O)N[C@@H](Cc1ccc(O)cc1)C(=O)NCC(=O)N[C@@H](CO)C(=O)N1CCC[C@H]1C(=O)NCC(=O)N[C@@H](Cc1ccccc1)C(=O)N[C@@H](Cc1c[nH]c2ccccc12)C(=O)N[C@@H](CCC(N)=O)C(=O)N[C@@H](CCCNC(=N)N)C(=O)N[C@@H](CCCNC(=N)N)C(=O)N[C@H](C(=O)N[C@@H](CCCNC(=N)N)C(=O)N[C@@H](CCCNC(=N)N)C(=O)N[C@@H](Cc1c[nH]c2ccccc12)C(=O)N[C@@H](CCCNC(=N)N)C(=O)N[C@@H](CCCNC(=N)N)C(=O)O)[C@@H](C)CC` [Peptide 30P-3], in the data set on CLas, the “Ct value, DNA, CLas clearance from infected citrus leaves” value was 29.08 ± 0.018 (2.3 × 10^4 ± 0.122); the “Ct value, RNA, CLas clearance from infected citrus leaves” value is 31.80 ± 0.028 (6.8 × 10^3 ± 0.190); the “Ct, DNA, HLBas (CLas primer), Mean” value is 27.53 and 26.725; the “Ct, DNA, HLBas (CLas primer), single replicate” value was 27 (2×) and 28.06 and 26.45. Also, in the data set with CLas, the “Ct, RNA, HLBas (CLas primer), Mean” value amounted to 30.155; the “Ct, RNA, HLBas (CLas primer), single replicate” value was 29.94 and 30.37. The cytotoxicity at 72 h, 20 µM in “in vitro” is less than 20%. Besides, the half-inhibitory concentration (IC50) with E. coli BL21 (BL21, 24 h) came to 1450 ± 90 nM. Besides, the “expression of the selected genes” value in data set [2] is given as “lower expression of the selected genes”. In the data set with E. amylovora (20 μM peptide), the “Ct, DNA, Erwinia Primer (P29T), Mean” value stood at 37.19; the “Ct, DNA, Erwinia Primer (P29T), single replicate” value was 37.67 and 36.71. Further, in the data set on E. amylovora (25 μM peptide), the “Ct, DNA, Erwinia Primer (P29T), Mean” value worked out at 36.5; the “Ct, DNA, Erwinia Primer (P29T), single replicate” value was 37.76 and 35.24. Also, in the data set with E. amylovora (25∞M peptide), the “Ct, RNA, Erwinia Primer (P29T), Mean” value is given as 31.535; the “Ct, RNA, Erwinia Primer (P29T), single replicate” value was 31.56 and 31.51. For the same compound, in the data set on E. amylovora (qPCR of DNA, 25 μM peptide), the “Ct value, DNA, E. amylovora clearance from infected apple leaves” value is 36.50 ± 0.89. For the same compound, the “cfu, DNA, E. amylovora clearance from infected apple leaves” value with E. amylovora (qPCR of DNA, 25 μM peptide, value in brackets) is recorded as ~10^2 cfu. Moreover, the “Ct value, RNA, E. amylovora clearance from infected apple leaves” value in the data set with E. amylovora (qPCR of RNA, 25 μM peptide) stood at 31.54 ± 0.018. Further, the “cfu, RNA, E. amylovora clearance from infected apple leaves” value with E. amylovora (qPCR of RNA, 25 μM peptide, value in brackets) was 7.8 × 10^3 ± 0.122 cfu. In data set [1], the “toxicity to tomato and tobacco” value was “not toxic”; the “corrosion” value is “no corrosion beyond the infiltrated spots”.
